Broadly, the inhibition is the drop in the measured response relative to a control, in per cent.

The text below walks through data of US8022225B2, “Triazole derivative” (Taisho Pharmaceutical Co., Ltd, priority 2004, dated 2011).

In this experiment the target is T1, human Edg-1(S1P1) (Homo sapiens, UniProt P21453).
T1 construct: expressed in transfected cells; host or cells: HEK-293
T1 sequence (P21453 whole entry): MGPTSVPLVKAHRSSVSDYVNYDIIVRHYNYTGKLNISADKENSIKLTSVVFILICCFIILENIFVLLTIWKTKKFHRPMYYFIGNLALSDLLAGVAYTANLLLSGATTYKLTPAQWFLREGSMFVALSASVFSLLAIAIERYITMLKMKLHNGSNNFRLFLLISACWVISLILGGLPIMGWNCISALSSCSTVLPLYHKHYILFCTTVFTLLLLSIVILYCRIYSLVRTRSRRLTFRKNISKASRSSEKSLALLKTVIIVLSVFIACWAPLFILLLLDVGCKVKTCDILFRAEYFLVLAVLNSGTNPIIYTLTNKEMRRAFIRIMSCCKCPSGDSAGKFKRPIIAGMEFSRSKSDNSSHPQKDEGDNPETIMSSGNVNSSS
Briefly: Cell system binding test: inhibition of [3H]-S1P binding to Edg-1(S1P1) gene transferred HEK-293 cells. To be noted: 10 μM compound, [3H]-S1P 10 nM, read-out: Cell system binding test % inhibition (10 μM). The method, then: Cells (1×10^5 cells/well) obtained as described above were seeded in poly-L-lysine-coated 96-well plates (Corning Incorporated), and then incubated in a 5% carbon dioxide gas incubator for 12 hours at 37° C. with the use of an MEM medium (Invitrogen Corporation) containing 100 U/mL of penicillin, 100 μg/mL of streptomycin, a 1% MEM nonessential amino acid solution, and 10% FCS. […] After the cells were washed twice with the buffer, they were solubilized with 100 μL of Opti Phase Supermix (produced by Perkin-Elmer), and measured for radioactivity by means of Micro Beta (produced by Perkin-Elmer).
Inhibition rate(%)=[1−(A−C)/(B−C)]×100
As to `CCn1c(SCc2ccc(C(C)(C)C)cc2)nnc1C(C)NS(=O)(=O)c1ccc(Cl)cc1` (stereo not shown) [Compound 89], the inhibition at 10 µM was 89.3%.
On to `C=CCSc1nnc([C@@H](C)NS(=O)(=O)c2ccc(Cl)cc2)n1C` [Compound 92], for which the inhibition at 10 µM came out at 88.3%.
Take `C=CCSc1nnc(C(CC)NS(=O)(=O)c2ccc(Cl)cc2)n1C` (stereo not shown) [Compound 105]: the inhibition at 10 µM was found to be 71.5%.
As to `CCCC(NS(=O)(=O)c1ccc(Cl)cc1)c1nnc(SCc2ccccc2)n1C` (stereo not shown) [Compound 126], the inhibition at 10 µM is 77%.
Regarding `CCCC(NS(=O)(=O)c1ccc(Cl)cc1)c1nnc(SCc2ccc(C)cc2)n1C` (stereo not shown) [Compound 127], the inhibition at 10 µM worked out at 63.6%.
For the compound `C=CCSc1nnc([C@@H](Cc2ccccc2)NS(=O)(=O)c2ccc(Cl)cc2)n1CCCC` [Compound 145], the inhibition at 10 µM is 46%.
Under `C=CCSc1nnc([C@@H](Cc2ccccc2)NS(=O)(=O)c2ccc(Cl)cc2)n1CC(C)C` [Compound 147] stands 75.2%; under `C=CCSc1nnc([C@@H](Cc2ccccc2)NS(=O)(=O)c2ccc(Cl)cc2)n1C(C)CC` (stereo partly shown) [Compound 149], 63.4%.
For `C=CCSc1nnc([C@@H](Cc2ccccc2)NS(=O)(=O)c2ccc(Cl)cc2)n1CCOC` [Compound 151], the inhibition at 10 µM was found to be 41.6%.
On to `C=CCSc1nnc([C@@H](Cc2ccccc2)NS(=O)(=O)c2ccc(Cl)cc2)n1CCN1CCOCC1` [Compound 153], for which the inhibition at 10 µM is 26.8%.
Turning to `C=CCSc1nnc([C@@H](Cc2ccccc2)NS(=O)(=O)c2ccc(Cl)cc2)n1C1CCCC1` [Compound 164], the inhibition at 10 µM stood at 40.4%.
Under `CCn1c([C@@H](C)NS(=O)(=O)c2ccc(Cl)cc2)nnc1[S+](C)[O-]` (stereo partly drawn) [Compound 180, 4-Chloro-N-{(1R)-1-[4-ethyl-5-(methylsulfinyl)-4H-1,2,4-triazol-3-yl]ethyl}benzenesulfonamide] stands 48.9%; under `CCn1c(OC)nnc1[C@@H](C)NS(=O)(=O)c1ccccc1Cl` [Compound 194], 85.6%.
In the case of `CCn1c(OC)nnc1[C@@H](C)NS(=O)(=O)c1c(Cl)cccc1Cl` [Compound 219], the inhibition at 10 µM turned out to be 95.9%.
With `CCn1c(OC)nnc1[C@@H](C)NS(=O)(=O)c1c(C)cc(C)cc1C` [Compound 225], the inhibition at 10 µM is 94%.
For the compound `CCn1c(OC)nnc1[C@@H](C)NS(=O)(=O)c1ccc(S(C)(=O)=O)cc1` [Compound 228], the inhibition at 10 µM is 93.9%.
As for `CCn1c(OC)nnc1[C@@H](C)NS(=O)(=O)Cc1ccccc1[N+](=O)[O-]` [Compound 234], the inhibition at 10 µM is 90.9%.
Take `CCCCCCCCS(=O)(=O)N[C@H](C)c1nnc(OC)n1CC` [Compound 236]: the inhibition at 10 µM stood at 98.9%.
For the compound `CCCS(=O)(=O)N[C@H](C)c1nnc(OC)n1CC` [Compound 239], the inhibition at 10 µM was found to be 92.7%.
As for `CCn1c(OC)nnc1[C@@H](C)NS(=O)(=O)Cc1ccccc1` [Compound 244], the inhibition at 10 µM came to 92.3%.
In the case of `CCn1c(OC)nnc1[C@@H](C)NS(=O)(=O)c1c(C)nn(C)c1Cl` [Compound 253], the inhibition at 10 µM is 83.4%.
Take `CCn1c(OC)nnc1[C@@H](C)NS(=O)(=O)c1c(C)noc1C` [Compound 254]: the inhibition at 10 µM came out at 84.6%.
Turning to `CCn1c(OC)nnc1[C@@H](C)NS(=O)(=O)c1ccc(C(=O)OC)o1` [Compound 256], the inhibition at 10 µM came to 95.6%.
As to `CCn1c(OC)nnc1[C@@H](C)NS(=O)(=O)c1ccccc1C(=O)OC` [Compound 259], the inhibition at 10 µM came out at 86.8%.
For `CCn1c(OC)nnc1[C@@H](C)NS(=O)(=O)c1ccc(C(C)(C)CC)cc1` [Compound 271], the inhibition at 10 µM is 89.6%.
With `CCn1c(OC)nnc1[C@@H](C)NS(=O)(=O)c1ccccc1OC(F)(F)F` [Compound 276], the inhibition at 10 µM is 88.9%.
`CCn1c(OC)nnc1[C@@H](C)NS(=O)(=O)c1ccc(Oc2ccccc2)cc1` [Compound 278]: the inhibition at 10 µM came to 70.9%.
As for `CCn1c(OC)nnc1[C@@H](C)NS(=O)(=O)c1ccc(F)cc1F` [Compound 279], the inhibition at 10 µM is 101%.
Take `CCn1c(OC)nnc1[C@@H](C)NS(=O)(=O)c1ccccc1F` [Compound 280]: the inhibition at 10 µM stood at 91%.
`CCn1c(OC)nnc1[C@@H](C)NS(=O)(=O)c1ccccc1I` [Compound 283]: the inhibition at 10 µM is 73.9%.
Under `CCn1c(OC)nnc1[C@@H](C)NS(=O)(=O)Cc1ccc(Cl)cc1` [Compound 293] stands 31.8%; under `CCn1c(OC)nnc1[C@@H](C)NS(=O)(=O)Cc1ccc(F)cc1` [Compound 294], 64.5%; under `CCn1c(OC)nnc1[C@@H](C)NS(=O)(=O)Cc1cccc(C(F)(F)F)c1` [Compound 295], 66.1%.
For the compound `CCn1c(OC)nnc1[C@@H](C)NS(=O)(=O)CC(c1ccccc1)c1ccccc1` [Compound 297], the inhibition at 10 µM stood at 23.8%.
Consider `CCn1c(OC)nnc1[C@@H](C)NS(=O)(=O)c1c(F)cccc1F` [Compound 298], for which the inhibition at 10 µM turned out to be 85.7%.
As for `CCn1c(OC)nnc1[C@@H](C)NS(=O)(=O)c1cc(Cl)ccc1OC` [Compound 300], the inhibition at 10 µM came out at 95%.
Consider `CCn1c(OC)nnc1[C@@H](C)NS(=O)(=O)c1ccc(CCC(=O)OC)cc1` [Compound 301], for which the inhibition at 10 µM stood at 78.3%.
With `CCn1c(OC)nnc1[C@@H](C)NS(=O)(=O)Cc1cccc([N+](=O)[O-])c1` [Compound 304], the inhibition at 10 µM worked out at 79.8%.
For the compound `CCn1c(OC)nnc1[C@@H](C)NS(=O)(=O)Cc1cccc(Cl)c1` [Compound 305], the inhibition at 10 µM turned out to be 86.5%.
For `CCn1c(OC)nnc1[C@@H](C)NS(=O)(=O)c1cc(Cl)ccc1F` [Compound 316], the inhibition at 10 µM was 92.9%.
In the case of `CCn1c(OC)nnc1[C@@H](C)NS(=O)(=O)CCCOc1ccc(OC)cc1` [Compound 318] it was 68.5%; in that of `CCn1c(OC)nnc1[C@@H](C)NS(=O)(=O)Cc1ccccn1` [Compound 323], 64.4%; in that of `CCn1c(OC)nnc1[C@@H](C)NS(=O)(=O)c1cccc(Oc2ccccc2OC)c1` [Compound 324], 88.1%.
Under `CCn1c(OC)nnc1[C@@H](C)NS(=O)(=O)Cc1cccnc1` [Compound 325] stands 36.5%.
Consider `CCn1c(OC)nnc1[C@@H](C)NS(=O)(=O)Cc1ccncc1` [Compound 329], for which the inhibition at 10 µM was found to be 38.5%.
Under `CCn1c(OC)nnc1[C@@H](C)NS(=O)(=O)CCN1C(=O)c2ccccc2C1=O` [Compound 331] stands 23.9%; under `CCn1c(OC)nnc1[C@@H](C)NS(=O)(=O)c1ccccc1OC` [Compound 332], 35.5%; under `CCn1c(OC)nnc1[C@@H](C)NS(=O)(=O)CC1CCCCC1` [Compound 333], 92.8%.
In the case of `CCCCCCCCCCS(=O)(=O)N[C@H](C)c1nnc(OC)n1CC` [Compound 334] it was 54.7%; in that of `CCn1c(OC)nnc1[C@@H](C)NS(=O)(=O)c1cnoc1C` [Compound 336], 89.3%.
Regarding `CCn1c(OC)nnc1[C@@H](C)NS(=O)(=O)c1sc(C)nc1C` [Compound 339], the inhibition at 10 µM is 92.1%.
Turning to `CCn1c(OC)nnc1[C@@H](C)NS(=O)(=O)c1cccc2nsnc12` [Compound 340], the inhibition at 10 µM is 77.5%.
